From patent US20230391776A1, “AMIDE OXAZOLE COMPOUND” (MEDSHINE DISCOVERY INC., priority 2020, published 2023)

Legend:
[1] = biological target: T1, human IRAK4 (Homo sapiens, UniProt Q9NWZ3); test: In vitro IRAK4 kinase activity, 33P isotope-labeled kinase assay; type: biochemical
T1 construct: purchased Reaction Biology Corp
T1 sequence (Q9NWZ3 1-460): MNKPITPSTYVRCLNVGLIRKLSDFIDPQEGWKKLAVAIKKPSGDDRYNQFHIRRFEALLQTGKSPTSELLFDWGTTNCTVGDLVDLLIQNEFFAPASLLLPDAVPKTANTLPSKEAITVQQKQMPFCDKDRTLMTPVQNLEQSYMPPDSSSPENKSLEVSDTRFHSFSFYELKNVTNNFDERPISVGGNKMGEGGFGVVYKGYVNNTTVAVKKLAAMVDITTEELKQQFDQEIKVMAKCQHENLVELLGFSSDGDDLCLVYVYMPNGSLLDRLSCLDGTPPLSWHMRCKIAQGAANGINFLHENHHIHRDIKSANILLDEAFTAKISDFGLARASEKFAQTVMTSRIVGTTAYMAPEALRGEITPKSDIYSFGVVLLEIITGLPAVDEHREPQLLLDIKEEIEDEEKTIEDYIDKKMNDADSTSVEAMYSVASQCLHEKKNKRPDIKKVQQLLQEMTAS
Experimental: The IC50 values were determined using ^33P isotope-labeled kinase activity assay (Reaction Biology Corp) to evaluate the inhibitory ability of the tested compounds on human IRAK4.
(§1) Buffer conditions: 20 mM Hepes (pH 7.5), 10 mM MgCl2, 1 mM EGTA, 0.02% Brij35, 0.02 mg/mL BSA, 0.1 mM Na3VO4, 2 mM DTT, 1% DMSO.
Test procedure: At room temperature, the tested compound was dissolved in DMSO and a 10 mM solution was prepared for use. The substrate was dissolved in a newly prepared buffer solution, and the tested IRAK4 kinase was added thereto and mixed evenly. The DMSO solution dissolved with the tested compound was added to the above mixed evenly reaction solution using acoustic technique (Echo 550). After incubation for 15 minutes, ^33P-ATP was added to initiate the reaction. The reaction was carried out at room temperature for 120 minutes, and the reaction mixture was dropped on P81 ion exchange filter paper (Whatman #3698-915). The filter paper was washed repeatedly with 0.75% phosphoric acid solution, and the radioactivity of phosphorylated substrate residues on the filter paper was determined. The kinase activity data were expressed by comparing the kinase activity of the group containing the tested compound with the kinase activity of the blank group (only containing DMSO), and the IC50 value was obtained by curve fitting by Prism4 software (GraphPad), the experimental results were shown in Table 2.

[2] = biological target: T2, human BTK (Homo sapiens, UniProt Q06187); test: In vitro BTK kinase activity, 33P isotope-labeled kinase assay; type: biochemical
T2 construct: purchased Reaction Biology Corp
T2 sequence (Q06187 whole entry): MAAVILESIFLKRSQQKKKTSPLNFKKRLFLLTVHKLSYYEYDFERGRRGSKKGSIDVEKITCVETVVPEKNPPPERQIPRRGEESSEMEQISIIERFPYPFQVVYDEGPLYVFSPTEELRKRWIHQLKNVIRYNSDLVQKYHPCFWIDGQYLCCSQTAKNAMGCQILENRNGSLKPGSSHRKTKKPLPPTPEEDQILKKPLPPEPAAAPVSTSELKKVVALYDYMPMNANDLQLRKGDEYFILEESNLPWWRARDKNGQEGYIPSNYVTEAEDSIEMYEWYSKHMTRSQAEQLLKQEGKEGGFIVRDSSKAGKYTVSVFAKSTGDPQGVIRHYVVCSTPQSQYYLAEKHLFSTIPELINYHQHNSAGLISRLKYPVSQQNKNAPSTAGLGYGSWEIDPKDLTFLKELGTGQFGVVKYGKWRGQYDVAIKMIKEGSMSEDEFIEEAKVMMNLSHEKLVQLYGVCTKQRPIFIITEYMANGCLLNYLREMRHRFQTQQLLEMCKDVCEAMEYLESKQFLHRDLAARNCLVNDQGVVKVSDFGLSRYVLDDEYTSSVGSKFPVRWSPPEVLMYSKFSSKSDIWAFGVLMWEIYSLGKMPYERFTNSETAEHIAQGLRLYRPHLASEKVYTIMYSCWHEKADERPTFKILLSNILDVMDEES
Experimental: The IC50 values were determined using ^33P isotope-labeled kinase activity assay (Reaction Biology Corp) to evaluate the inhibitory ability of the tested compounds on human BTK.
as §1
Test procedure: At room temperature, the tested compound was dissolved in DMSO and a 10 mM solution was prepared for use. The substrate was dissolved in a newly prepared buffer solution, and the BTK kinase was added thereto and mixed evenly. The compound dissolved in DMSO was added to the kinase reaction mixture through Echo 550 (Acoustic technology; Nanoliter range). After incubation for 20 minutes at room temperature, ^33P-ATP was added to initiate the reaction. The reaction was carried out at room temperature for 2 hours, and the radioactivity of the reaction solution drop was detected by filtration-binding method with P81 ion exchange filter paper. The kinase activity data were expressed by comparing the kinase activity of the group containing the tested compound with the kinase activity of the blank group (only containing DMSO), and the IC50 value was obtained by curve fitting by Prism4 software (GraphPad), the experimental results were shown in Table 3.

[3] = test system: TNF-α production in THP-1 cells; test: TNF-α ELISA in LPS-stimulated THP-1 cells; type: cell-based; conditions: Homo sapiens, TNF-α in supernatant, 150 ng/mL LPS, 18 hours
Experimental: THP-1 human acute single cell leukemia cells were purchased from ATCC (Cat #TIB-202) and cultured at 37° C. in 5% CO2 incubator. The composition of medium was RPMI1640 (Gibco, Cat #22400-105), and the supplementary compositions were 10% FBS (Gibco, Cat #10091148); 1% PenStrep (Gibco, Cat #15140); 0.05 mM β-mercaptoethanol (Sigma, Cat #M6250).
TNF-α Elisa kit was used to detect the content of TNF-α in cell culture supernatant samples. TNF-α was produced by stimulating THP-1 cells with 150 ng/mL LPS (Sigma, Cat #L6529).
THP-1 cells cultured normally at logarithmic growth period were seeded in a 96-well plate (Corning #3599) at a certain concentration (1*10^5/100 μL) and then put into a cell incubator for incubation. After two hours, 16.7 μL of different concentrations of the compound to be tested (8*final concentration) were added and incubated in an incubator. After one hour, 16.7 μL of 1200 ng/mL LPS was added and incubated in an incubator. After 18 hours, the culture supernatant samples were collected by centrifugation, and the content of TNF-α could be detected by TNF-α Elisa kit. Finally, OD signals (OD450-OD570) were read on envision board reader.
The OD450-OD570 signal value was converted into a percentage inhibition rate.
Inhibition rate %=(ZPE−sample)/(ZPE−HPE)*100.
“HPE” referred to the OD450-OD570 signal value of the control well without LPS stimulated cells, and “ZPE” referred to the OD450-OD570 signal value of the control well with LPS stimulated cells. The IC50 value of the compound was calculated by XLFit in the excel add-in.
Y=Bottom+(Top−Bottom)/(1+(IC50/X)^HillSlope). Equation: […]

[4] = test system: OCI-LY10 human diffuse large B lymphoma cells; test: OCI-LY10 cell proliferation (Cell Titer Glo); type: cell-based; conditions: 72 hours
Experimental: (§2) The tumor cell lines OCI-LY10 and TMD-8 were used to detect the effect of the compound of the disclosure on inhibiting tumor cell proliferation in vitro.
OCI-LY10 human diffuse large B lymphoma cells, from Nanjing Cobioer Biotechnology Co., Ltd
(§3) The compound was diluted with DMSO to a final concentration of 10 mM. The compound was freshly prepared and ready for use.
(§4) a) Logarithmic growth period cells were collected, counted, resuspended with complete culture medium, the cell concentration was adjusted to an appropriate concentration (determined according to the results of cell density optimization test), inoculated on 96-well plates, and 100 μL of cell suspension was added to each well. Cells were incubated in an incubator with 37° C., 100% relative humidity and 5% CO2 for 24 hours.
(§5) b) The compound to be tested was diluted to 50 μM with culture medium and then gradient diluted for 8 times. Cells were added with 25 μL/well. The final concentrations of the compound were from […], 3-fold gradient dilution, with a total of 9 concentration points.
(§6) c) Cells were incubated in an incubator with 37° C., 100% relative humidity and 5% CO2 for 72 hours;
(§7) d) 60 μL of CTG test reagent was added to the culture medium.
(§8) e) Shaked fully and reacted in the dark for 10 min. Luminescence was measured on ENVISION and the inhibition rate was calculated.
(§9) Cell growth inhibition rate %=[(RLUv−RLUs)/(RLUv−RLUb)]×100%

[5] = test system: TMD-8 human diffuse large B lymphoma cells; test: TMD-8 cell proliferation (Cell Titer Glo); type: cell-based; conditions: TMD8, 72 hours
Experimental: as §2
TMD-8 human diffuse large B lymphoma cells, from Nanjing Cobioer Biotechnology Co., Ltd
as §3, §4, §5, §6, §7, §8, §9

[6] = test system: OCI-LY3 cell line; test: OCI-LY3 cell proliferation (CTG); type: cell-based; conditions: Homo sapiens, 72 hours
Experimental: The tumor cell line OCI-LY3 was used to detect the effect of the compound of the disclosure on inhibiting tumor cell proliferation in vitro.
The tumor cell line used in this experiment was provided by Nanjing Cobioer Biotechnology Co., Ltd. See Table 6 below for specific information.
The OCI-LY3 cell line was cultured in the corresponding medium at 37° C. and 5% CO2, and the logarithmic growth period cells were used for experimental planking. The cells were collected and centrifuged at 800 rpm for 5 minutes, and the culture medium was re-suspended and spread in a 96-well plate. After being cultured overnight in 37° C., 5% CO2 incubator, drugs with different concentration gradients (10 μL of prepared diluent of test compound was added) were added, and incubated in 37° C., 5% CO2 incubator for 72 hours. The cell culture plate was incubated with CTG reagent at room temperature in the dark for 30 minutes and return to room temperature. CTG solution was added into the biosafety cabinet in the dark 100 μL/well, and was shaken and mixed evenly on plate shaker in the dark for 2 minutes, and incubated at room temperature in the dark for 10 minutes. The luminous value was read and recorded with Perkin Elmer Envision instrument.
The luminous value of the blank control group was subtracted from the luminous value measured at each drug concentration, the ratio of this value to DMSO group was taken as the cell inhibition rate (%). GraphPad software was used, the logarithm of drug concentration (log drug concentration) versus inhibition rate was plotted, and the IC50 value and 95% confidence value were automatically fitted and calculated by log (inhibitor) vs. response-variable slop (four parameters) algorithm of nonlinear regression by software.

IC50 [1]	IC50 [2]	IC50 [3]	IC50 [4]	IC50 [5]	IC50 [6]	SMILES
1.8 nM	7.9 nM	20 nM	29 nM	10 nM	57 nM	CC(C)(O)CCc1cn2cc(NC(=O)c3coc(-c4ccnc(N)c4)n3)c(N3CCCCC3)cc2n1 [WX001]
6.6 nM	–	116 nM	125 nM	–	–	CC(=O)Nc1cc(-c2nc(C(=O)Nc3cn4cc(CCC(C)(C)O)nc4cc3N3CCCCC3)co2)ccn1 [WX002]
0.6 nM	15.4 nM	–	–	–	–	COc1cc(-c2nc(C(=O)Nc3cn4cc(CCC(C)(C)O)nc4cc3N3CCCCC3)co2)ccn1 [WX003]
12 nM	–	–	–	–	–	CN(C)c1cc(-c2nc(C(=O)Nc3cn4cc(CCC(C)(C)O)nc4cc3N3CCCCC3)co2)ccn1 [WX004]
1.5 nM	0.6 nM	171 nM	–	325 nM	–	CC(C)(O)CCc1cn2cc(NC(=O)c3coc(-c4ccnc5[nH]ccc45)n3)c(N3CCCCC3)cc2n1 [WX005]
1 nM	0.7 nM	94 nM	36 nM	183 nM	–	CNc1cc(-c2nc(C(=O)Nc3cn4cc(CCC(C)(C)O)nc4cc3N3CCCCC3)co2)ccn1 [WX006]
0.4 nM	4.1 nM	–	–	–	–	Cc1cc(-c2nc(C(=O)Nc3cn4cc(CCC(C)(C)O)nc4cc3N3CCC4(CCOC4)CC3)co2)ccn1 [WX007]
4.3 nM	71 nM	–	–	–	–	Cc1cc(-c2nc(C(=O)Nc3cn4cc(CCC(C)(C)O)nc4cc3N3CCC4(CC3)COC4)co2)ccn1 [WX008]
2.1 nM	21.2 nM	–	–	–	–	Cc1cc(-c2nc(C(=O)Nc3cn4cc(C(C)(C)O)nc4cc3N3CCC(CO)CC3)co2)ccn1 [WX010]
4.7 nM	1.3 nM	–	6 nM	28 nM	26 nM	CS(=O)(=O)CCc1cn2cc(NC(=O)c3coc(-c4ccnc(N)c4)n3)c(N3CCCCC3)cc2n1 [WX011]
0.4 nM	14.4 nM	–	20 nM	–	–	Cc1cc(-c2nc(C(=O)Nc3cn4cc(CCS(C)(=O)=O)nc4cc3-c3ccccc3)co2)ccn1 [WX012]
2.5 nM	0.5 nM	–	18 nM	40 nM	41 nM	CN(C)CCc1cn2cc(NC(=O)c3coc(-c4ccnc(N)c4)n3)c(N3CCCCC3)cc2n1 [WX014]
0.4 nM	5.6 nM	60 nM	36 nM	–	–	Cc1cc(-c2nc(C(=O)Nc3cn4cc(CCN(C)C)nc4cc3-c3ccccc3)co2)ccn1 [WX015]
2 nM	1.6 nM	–	3 nM	6 nM	37 nM	CN(C)CCc1cn2cc(NC(=O)c3coc(-c4ccnc(N)c4)n3)c(-c3ccccc3)cc2n1 [WX016]
5.1 nM	–	–	–	–	–	Cc1cc(-c2nc(C(=O)Nc3cn4cc(C(C)(C)O)nc4nc3-c3ccccc3)co2)ccn1 [WX018]
0.3 nM	19.8 nM	–	–	–	–	Cc1cc(-c2nc(C(=O)Nc3cn4cc(C(C)(C)O)nc4cc3-c3ccccn3)co2)ccn1 [WX021]
0.1 nM	45 nM	–	–	–	–	COc1cc(-c2nc(C(=O)Nc3cn4cc(C(C)(C)O)nc4cc3-c3ccccc3)co2)ccn1 [WX022]
0.1 nM	1 nM	–	14 nM	–	–	CNc1cc(-c2nc(C(=O)Nc3cn4cc(C(C)(C)O)nc4cc3-c3ccccc3)co2)ccn1 [WX023]
0.1 nM	–	–	–	–	–	Cc1cc(-c2nc(C(=O)Nc3cn4cc(CC(N)=O)nc4cc3-c3ccccc3)co2)ccn1 [WX025]
0.1 nM	–	–	–	–	–	Cc1nccc(-c2nc(C(=O)Nc3cn4cc(C(C)(C)O)nc4cc3-c3ccccc3)co2)c1F [WX028]
0.1 nM	–	–	48 nM	–	–	Cc1cc(-c2nc(C(=O)Nc3cn4cc(S(C)(=O)=O)nc4cc3-c3ccccc3)co2)ccn1 [WX029]
0.9 nM	–	–	–	–	–	Cc1cc(-c2nc(C(=O)Nc3cn4cc(N=S(C)(C)=O)nc4cc3-c3ccccc3)co2)ccn1 [WX032]
0.4 nM	–	57.1 nM	15.2 nM	16.7 nM	42 nM	Cc1nccc(-c2nc(C(=O)Nc3cn4cc(C(C)(C)O)nc4cc3-c3ccccc3)co2)c1Cl [WX036]
0.3 nM	–	–	–	–	–	Cc1cc(-c2nc(C(=O)Nc3cn4cc(CC(C)(C)O)nc4cc3-c3ccccc3)co2)ccn1 [WX038]
